# Patent US20240190860A1, “8-CYCLO-SUBSTITUTED QUINAZOLINE DERIVATIVES AS LPA RECEPTOR 2 INHIBITORS” (CHIESI FARMACEUTICI S.p.A., priority 2021, published 2024)
# Target: T1, human recombinant LPA2 expressed in CHO cells (Homo sapiens, UniProt Q9HBW0)
# T1 construct: expressed in transfected cells; host or cells: CHO cells (CHO-hLPA2 cell line)
# Test: FLIPR calcium mobilization assay, LPA2 antagonism in CHO-hLPA2 cells
# Type: cell-based
# Conditions: CHO-hLPA2 cells, inhibition of LPA EC80 Ca2+ response, 30 min pre-incubation; read-out: LPA2 IC50
# Description: The effectiveness of compounds of the present invention as LPA2 antagonist can be determined at the human recombinant LPA2 expressed in CHO cells, using a FLIPR assay in 384 well format.
# CHO-hLPA2 cell lines are cultured in a humidified incubator at 5% C02 in DMEM/F-12 (1:1) MIXTURE with 2 mM Glutamax, supplemented with 10% of Foetal Bovine Serum, 1 mM Sodium Pyruvate, 11 mM Hepes and 1× Penicillin/Streptomycin. CHO hLPA2 cells are seeded into black walled clear-bottom 384-well plates (#781091, Greiner Bio-One GmbH) at a density of 7,500 cells per well in 50 μl culture media and grown overnight in a 37° C. humidified CO2-incubator. Serial dilutions (1:3 or 1:4, 11 points CRC) of compounds are performed in 100% DMSO at 200× the final concentration. The compounds are diluted 1:50 prior to the experiment with Assay Buffer (20 mM HEPES, 145 mM NaCl, 5 mM KCl, 5.5 mM glucose, 1 mM MgCl2 and 2 mM CaCl2, pH 7.4 containing 0.01% Pluronic F-127) to obtain a solution corresponding to […] the final concentration in the assay (4×, 2% DMSO). The final concentration of DMSO in the assay will be 0.5% in each well. Medium is removed by aspiration and cells are then incubated with 30 μl of a loading solution containing 5 μM of the cytoplasmic Ca2+ indicator Cal-520 AM in Assay Buffer containing 2.5 mM probenecid for 30 min at 37° C. incubator (cell loading). The loaded cell plates are transferred into the FLIPR instrument and calcium responses are monitored during the on-line addition protocols. For testing of compounds, after the cell loading, 10 μl/well of 4× antagonists' solution was added onto the cells. After 30 min pre-incubation (at 37° C.), 10 μl/well of 5× concentrated LPA EC80 was added and Ca2+ mobilization responses was followed during the on-line addition protocol. Intracellular peak fluorescence values subtracted by baseline fluorescence are exported and analysed to determine IC50 values, respectively. The calcium response is expressed as percentage of the maximal inhibition of the EC80 agonist response.
# The raw data (peak height expressed as relative fluorescence units) are normalized and transformed into “percent of inhibition”. Curve fitting and pIC50 (−LogIC50) estimations are carried out using a four-parameter logistic model using XLfit Software.
# T1 sequence (Q9HBW0 whole entry): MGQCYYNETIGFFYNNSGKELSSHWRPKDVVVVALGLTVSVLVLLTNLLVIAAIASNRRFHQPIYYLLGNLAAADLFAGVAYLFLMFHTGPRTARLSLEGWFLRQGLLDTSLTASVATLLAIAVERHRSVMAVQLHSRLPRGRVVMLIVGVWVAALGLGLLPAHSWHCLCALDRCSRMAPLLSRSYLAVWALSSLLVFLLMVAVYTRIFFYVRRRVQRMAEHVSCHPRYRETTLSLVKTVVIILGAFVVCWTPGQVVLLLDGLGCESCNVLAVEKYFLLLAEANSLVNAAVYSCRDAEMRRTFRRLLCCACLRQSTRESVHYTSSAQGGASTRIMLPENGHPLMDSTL
row,SMILES,IC50
1,"Cc1cc(-c2ccc(S(=O)(=O)N3CCN(C[C@H](C)Nc4ncnc5c(N6CCCC6)cccc45)CC3)s2)on1 [Example 20, N-[(2S)-1-(4-{[5-(3-methyl-1,2-oxazol-5-yl)thiophen-2-yl]sulfonyl}piperazin-1-yl)propan-2-yl]-8-(pyrrolidin-1-yl)quinazolin-4-amine]",< 0.01 µM
2,"Cc1cc(-c2ccc(S(=O)(=O)N3CCN(C[C@H](C)Nc4ncnc5c(-c6ccncc6)cccc45)CC3)s2)on1 [Example 8, N-[(2S)-1-(4-{[5-(3-methyl-1,2-oxazol-5-yl)thiophen-2-yl]sulfonyl}piperazin-1-yl)propan-2-yl]-8-(pyridin-4-yl)quinazolin-4-amine]",< 0.01 µM
3,"Cc1cc(-c2ccc(S(=O)(=O)N3CCN(C[C@H](C)Nc4ncnc5c(-c6ccccc6)cccc45)CC3)s2)on1 [Example 4, N-[(2S)-1-(4-{[5-(3-methyl-1,2-oxazol-5-yl)thiophen-2-yl]sulfonyl}piperazin-1-yl)propan-2-yl]-8-phenylquinazolin-4-amine]",< 0.01 µM
4,"Cc1cc(-c2ccc(S(=O)(=O)N3CCN(CCNc4ncnc5c(-c6cccnc6)cccc45)CC3)s2)on1 [Example 19, N-[2-(4-{[5-(3-methyl-1,2-oxazol-5-yl)thiophen-2-yl]sulfonyl}piperazin-1-yl)ethyl]-8-(pyridin-3-yl)quinazolin-4-amine]",< 1 µM
5,"CC(=O)N1CCc2cc(S(=O)(=O)N3CCN(C[C@H](C)Nc4ncnc5c(-c6cccnc6)cccc45)CC3)ccc21 [Example 43, 1-[5-({4-[(2S)-2-{[8-(pyridin-3-yl)quinazolin-4-yl]amino}propyl]piperazin-1-yl}sulfonyl)-2,3-dihydro-1H-indol-1-yl]ethan-1-one]",< 0.01 µM
6,"COC(=O)Nc1nc(C)c(S(=O)(=O)N2CCN(C[C@H](C)Nc3ncnc4c(-c5cnc(C)nc5)cccc34)CC2)s1 [Example 34, methyl N-[4-methyl-5-({4-[(2S)-2-{[8-(2-methylpyrimidin-5-yl)quinazolin-4-yl]amino}propyl]piperazin-1-yl}sulfonyl)-1,3-thiazol-2-yl]carbamate]",0.01 to 0.1 µM
7,"Cc1cc(-c2ccc(S(=O)(=O)N3CCN(C[C@H](C)Nc4ncnc5c(-c6ccccn6)cccc45)CC3)s2)on1 [Example 12, N-[(2S)-1-(4-{[5-(3-methyl-1,2-oxazol-5-yl)thiophen-2-yl]sulfonyl}piperazin-1-yl)propan-2-yl]-8-(pyridin-2-yl)quinazolin-4-amine]",< 0.01 µM
8,"Cc1cc(-c2ccc(S(=O)(=O)N3CCN(C[C@H](C)Nc4ncnc5c(-c6cccnc6)cccc45)CC3)s2)on1 [Example 6, N-[(2S)-1-(4-{[5-(3-methyl-1,2-oxazol-5-yl)thiophen-2-yl]sulfonyl}piperazin-1-yl)propan-2-yl]-8-(pyridin-3-yl)quinazolin-4-amine]",< 0.01 µM

# Results, then the molecule that gave them:
row,IC50,SMILES
1,< 0.01 µM,"C[C@@H](CN1CCN(S(=O)(=O)c2ccc3[nH]c(=O)[nH]c(=O)c3c2)CC1)Nc1ncnc2c(-c3cccnc3)cccc12 [Example 51, 6-({4-[(2S)-2-{[8-(pyridin-3-yl)quinazolin-4-yl]amino}propyl]piperazin-1-yl}sulfonyl)-1,2,3,4-tetrahydroquinazoline-2,4-dione]"
2,< 0.01 µM,"C[C@@H](CN1CCN(S(=O)(=O)c2ccc3[nH]c(=O)sc3c2)CC1)Nc1ncnc2c(-c3ccc(F)c(CN(C)C)c3)cccc12 [Example 97, 6-({4-[(2S)-2-[(8-{3-[(dimethylamino)methyl]-4-fluorophenyl}quinazolin-4-yl)amino]propyl]piperazin-1-yl}sulfonyl)-2,3-dihydro-1,3-benzothiazol-2-one]"
3,0.01 to 0.1 µM,"COC(=O)Nc1nc(C)c(S(=O)(=O)N2CCN(C[C@H](C)Nc3ncnc4c(-c5ccnc(C#N)n5)cccc34)CC2)s1 [Example 73, methyl N-[5-({4-[(2S)-2-{[8-(2-cyanopyrimidin-4-yl)quinazolin-4-yl]amino}propyl]piperazin-1-yl}sulfonyl)-4-methyl-1,3-thiazol-2-yl]carbamate]"
4,< 0.01 µM,"Cc1cc(-c2cc(S(=O)(=O)N3CCN(C[C@H](C)Nc4ncnc5c(-c6cccc(CN(C)C)c6)cccc45)CC3)cs2)on1 [Example 93, 8-{3-[(dimethylamino)methyl]phenyl}-N-[(2S)-1-(4-{[5-(3-methyl-1,2-oxazol-5-yl)thiophen-3-yl]sulfonyl}piperazin-1-yl)propan-2-yl]quinazolin-4-amine]"
5,< 0.01 µM,"COC(=O)Nc1nc(C)c(S(=O)(=O)N2CCN(C[C@H](C)Nc3ncnc4c(-c5cccc(CN(C)C)c5C)cccc34)CC2)s1 [Example 89, methyl N-[5-({4-[(2S)-2-[(8-{3-[(dimethylamino)methyl]-2-methylphenyl}quinazolin-4-yl)amino]propyl]piperazin-1-yl}sulfonyl)-4-methyl-1,3-thiazol-2-yl]carbamate]"
6,< 0.01 µM,"CC(=O)Nc1cc(F)c(S(=O)(=O)N2CCN(C[C@H](C)Nc3ncnc4c(-c5cccc(CN(C)C)c5)cccc34)CC2)cc1C [Example 53, N-[4-({4-[(2S)-2-[(8-{3-[(dimethylamino)methyl]phenyl}quinazolin-4-yl)amino]propyl]piperazin-1-yl}sulfonyl)-5-fluoro-2-methylphenyl]acetamide]"
7,0.01 to 0.1 µM,"COC(=O)Nc1nc(C)c(S(=O)(=O)N2CCN(C[C@H](C)Nc3ncnc4c(-c5ccc(N)nc5)cccc34)CC2)s1 [Example 56, methyl N-[5-({4-[(2S)-2-{[8-(6-aminopyridin-3-yl)quinazolin-4-yl]amino}propyl]piperazin-1-yl}sulfonyl)-4-methyl-1,3-thiazol-2-yl]carbamate]"
8,< 0.01 µM,"CC(=O)N1CCc2cc(S(=O)(=O)N3CCN(C[C@H](C)Nc4ncnc5c(-c6cn(C)nc6C(F)(F)F)cccc45)CC3)ccc21 [Example 68, 1-[5-({4-[(2S)-2-({8-[1-methyl-3-(trifluoromethyl)-1H-pyrazol-4-yl]quinazolin-4-yl}amino)propyl]piperazin-1-yl}sulfonyl)-2,3-dihydro-1H-indol-1-yl]ethan-1-one]"
9,0.01 to 0.1 µM,"C[C@@H](CN1CCN(S(=O)(=O)c2ccccn2)CC1)Nc1ncnc2c(-c3cn(C)nc3C(F)(F)F)cccc12 [Example 103, 8-[1-methyl-3-(trifluoromethyl)-1H-pyrazol-4-yl]-N-[(2S)-1-[4-(pyridine-2-sulfonyl)piperazin-1-yl]propan-2-yl]quinazolin-4-amine]"
10,< 0.01 µM,"COC(=O)Nc1ncc(S(=O)(=O)N2CCN(C[C@H](C)Nc3ncnc4c(-c5cccnc5)cccc34)CC2)s1 [Example 47, methyl N-[5-({4-[(2S)-2-{[8-(pyridin-3-yl)quinazolin-4-yl]amino}propyl]piperazin-1-yl}sulfonyl)-1,3-thiazol-2-yl]carbamate]"
11,< 0.01 µM,"COC(=O)Nc1nc(C)c(S(=O)(=O)N2CCN(C[C@H](C)Nc3ncnc4c(-c5c(C)nn(CCN(C)C)c5C)cccc34)CC2)s1 [Example 101, methyl N-[5-({4-[(2S)-2-[(8-{1-[2-(dimethylamino)ethyl]-3,5-dimethyl-1H-pyrazol-4-yl}quinazolin-4-yl)amino]propyl]piperazin-1-yl}sulfonyl)-4-methyl-1,3-thiazol-2-yl]carbamate]"
12,< 0.01 µM,"COC(=O)Nc1nc(C)c(S(=O)(=O)N2CCN(C[C@H](C)Nc3ncnc4c(-c5cn(C)nc5C)cccc34)CC2)s1 [Example 63, methyl N-[5-({4-[(2S)-2-{[8-(1,3-dimethyl-1H-pyrazol-4-yl)quinazolin-4-yl]amino}propyl]piperazin-1-yl}sulfonyl)-4-methyl-1,3-thiazol-2-yl]carbamate]"
